One series deals with rabbits. Description: Hair regeneration on depilated dorsum of rabbits, lotion applied once daily. The series is classed as in vivo. As to conditions: 1% in 50% aqueous ethanol with 2% propyleneglycol, pH 6.7, 1ml once every day, difference to untreated area; for Mean remainder of hair length (mm) 10th (day): 10th day after application; for Mean remainder of hair length (mm) 20th (day): 20th day after application; for Mean remainder of hair length (mm) 30th (day): 30th day after application. On the procedure:
Either of an α-glycosyl-L-ascorbic acid or an α-glycosyl bioflavonoid prepared by the method in Example of Preparation 1-8 was dissolved to give a concentration of 1% in a 50% aqueous ethanol solution containing 2% propyleneglycol, and the mixture was adjusted to pH 6.7 by the addition of 6N sodium hydroxide to obtain a solution in hair lotion form. As control, a solution in hair lotion form was prepared similarly as above, except that α-glycosyl-L-ascorbic acid and α-glycosyl bioflavonoid were replaced with either of intact L-ascorbic acid, bioflavonoid and refined water.
The dorsum surgace of rabbits was sectioned into four areas, 5cm^2 each, i.e. two areas near at head side and two areas near at tail side which were respectively bisymmetrical about the vertebral columns of the rabbits, and the four areas were depilated by applying thereto silver cream (a depilatory agent) and subjecting them to brief standing. The depilated areas were first sufficiently washed with water, then the depilated areas of the right area near at head side, the left area near at head side, and the right area near at tail side were respectively applied once every day by using a paintbrush with 1ml of the test solution, 1ml of the control solution containing refined water, and 1ml of the control solution containing L-ascorbic acid or bioflavonoid. Furthermore, the left area near at tail side was untreated.
The application of each solution was started on the second day after the depilation, and the newly regenerated hairs were depilated to count on the 10th, 20th and 30th days after the application. The length of 10 coarse hairs regenerated in each area was measured with a micromanipulator, and expressed by the mean remainder of hair length (mm) between the hair length in the area which had been applied with a sample solution and that in the area which had been untreated.
In addition, it has been known that the growth rates of hairs in the bisymmetrical dorsum surfaces about the vertebral column of a rabbit is in the same level, and those in both sexes are also in the same level.

Series [1] relates to volunteers with alopecias. Description: 3-month clinical test of a hair restorer lotion in volunteers with alopecias. As to conditions: for Therapeutic efficacy (Number of volunteers) Recovery / Therapeutic efficacy (Number of volunteers) Moderate recovery / Therapeutic efficacy (Number of volunteers) Not effected / Therapeutic efficacy (Number of volunteers) Unfavorable: 3-month, lotion with 1.0 part of ingredient, 3 times a day; for Therapeutic efficacy (Number of volunteers) Recovery: hair newly regenerated, apparently free from alopecia; for Therapeutic efficacy (Number of volunteers) Moderate recovery: moderate hair regeneration, no recurrence of alopecia; for Therapeutic efficacy (Number of volunteers) Not effected: no regeneration of hair; for Therapeutic efficacy (Number of volunteers) Unfavorable: side effect or acceleration of alopecia found; for cure rate (%): percentage of volunteers with recovery and moderate recovery against total number of each group. The series is classed as in vivo, human. From the text:
Based on the results in Experiment 1, 20 randomly chosen volunteers with alopecias (10 men and 10 women) as the recipient received 3-month clinical test. The volunteers were 15-66 years old.
The symptom of the volunteers, who had received a pharmacotherapy or physiotherapy at a department of dermatology, were the male alopecia such as senile alopecia and alopecia prematura, and alopecia areata such as multiple alopecia areata and malignant alopecia areata.
Since the symptom of the volunteers with a slight alopecia areata may be spontaneously recovered, the volunteers with a relatively small alopecic site and those with the atrophia cutis or atrophic pores which were not clinically observed were excluded in this Experiment.
The procedure of therapeutic treatment used in this Experiment is carried out according to conventional procedure:
Forty-five parts of ethanol, 2 parts of glycerine, 55 parts of refined water, and 1.0 part of 2-O-α-D-glucosyl-L-ascorbic acid or α-glucosyl bioflavonoid prepared by the method in Example of Preparation 2, 4, 6 or 8, were mixed, and the mixture was adjusted to pH 6.7 by the addition of 6N sodium hydroxide to obtain a hair restorer for external application in lotion form. When the volunteers received a physical examination, their affected sites were applied a thin coat of the hair restorer, massaged and exposed to an artificial sunlight. Furthermore, the volunteers were instructed to apply the hair restorer to the affected sites 3 times a day at home.
As control, a hair restorer for external application containing intact L-ascorbic acid or bioflavonoid in place of 2-O-α-D-glucosyl-L-ascorbic acid or α-glucosyl bioflavonoid in the above hair restorer was used.

Series [2] deals with α-glucosidase which had been extracted from a pig liver.

Experimental findings from EP0461827B1, “Hair restorer” (KABUSHIKI KAISHA HAYASHIBARA SEIBUTSU KAGAKU KENKYUJO, priority 1990, dated 1991) are described below.

Take `C[C@@H]1O[C@@H](OC[C@H]2O[C@@H](Oc3c(-c4ccc(O)c(O)c4)oc4cc(O)cc(O)c4c3=O)[C@H](O)[C@@H](O)[C@@H]2O)[C@H](O)[C@H](O)[C@H]1O` [Rutin, 3-[[6-O-(6-deoxy-α-L-mannopyranosyl)-β-D-glucopyranosyl)]oxy-2-(3,4-dihydroxyphenyl)-5,7-dihydroxy-4H-1-benzopyran-4-one, reference compound]: in the series on rabbits, the “Mean remainder of hair length (mm) 10th (day)” value stood at 0.3 mm, the “Mean remainder of hair length (mm) 20th (day)” value was 0.9 mm and the “Mean remainder of hair length (mm) 30th (day)” value amounted to 0.5 mm. In series [1], the “Therapeutic efficacy (Number of volunteers) Recovery” value is given as 0 Number of volunteers, the “Therapeutic efficacy (Number of volunteers) Moderate recovery” value is 4 Number of volunteers, the “Therapeutic efficacy (Number of volunteers) Not effected” value was 13 Number of volunteers and the “Therapeutic efficacy (Number of volunteers) Unfavorable” value is reported as 3 Number of volunteers.
For the compound `C[C@@H]1O[C@@H](O[C@H]2[C@H](Oc3cc(O)c4c(c3)O[C@H](c3ccc(O)cc3)CC4=O)O[C@H](CO)[C@@H](O)[C@@H]2O)[C@H](O)[C@H](O)[C@H]1O` [Naringin, reference compound], in the series with rabbits, the “Mean remainder of hair length (mm) 10th (day)” value came to 0.1 mm, the “Mean remainder of hair length (mm) 20th (day)” value amounted to 0.5 mm and the “Mean remainder of hair length (mm) 30th (day)” value is -0.2 mm. In addition, in series [1], the “Therapeutic efficacy (Number of volunteers) Recovery” value is on record as 0 Number of volunteers, the “Therapeutic efficacy (Number of volunteers) Moderate recovery” value is on record as 5 Number of volunteers, the “Therapeutic efficacy (Number of volunteers) Not effected” value was 10 Number of volunteers and the “Therapeutic efficacy (Number of volunteers) Unfavorable” value is 5 Number of volunteers.
α-Glucosyl naringin: in the series with rabbits, the “Mean remainder of hair length (mm) 10th (day)” value came out at 2.1 mm, the “Mean remainder of hair length (mm) 20th (day)” value stood at 6.6 mm and the “Mean remainder of hair length (mm) 30th (day)” value stood at 6.3 mm. For the same compound, in series [1], the “Therapeutic efficacy (Number of volunteers) Recovery” value is recorded as 4 Number of volunteers, the “Therapeutic efficacy (Number of volunteers) Moderate recovery” value was 9 Number of volunteers, the “Therapeutic efficacy (Number of volunteers) Not effected” value is given as 7 Number of volunteers and the “Therapeutic efficacy (Number of volunteers) Unfavorable” value is listed as 0 Number of volunteers. In series [1], the “cure rate (%)” value was 65%. Also, in series [2], the “hydrolysis by α-glucosidase” value is “hydrolyzed the α-glucosyl naringin into naringin and D-glucose”.
For the compound `O=C1O[C@H]([C@@H](O)CO)C(O)=C1O` [L-Ascorbic acid, L-ascorbic acid, reference compound], in the series on rabbits, the “Mean remainder of hair length (mm) 10th (day)” value was determined as 0.1 mm, the “Mean remainder of hair length (mm) 20th (day)” value is -0.2 mm and the “Mean remainder of hair length (mm) 30th (day)” value amounted to 0.5 mm. Also, in series [1], the “Therapeutic efficacy (Number of volunteers) Recovery” value is given as 0 Number of volunteers, the “Therapeutic efficacy (Number of volunteers) Moderate recovery” value was 3 Number of volunteers, the “Therapeutic efficacy (Number of volunteers) Not effected” value is given as 11 Number of volunteers and the “Therapeutic efficacy (Number of volunteers) Unfavorable” value is listed as 6 Number of volunteers.
As for α-Glucosyl rutin, in the series on rabbits, the “Mean remainder of hair length (mm) 10th (day)” value came to 2.5 mm, the “Mean remainder of hair length (mm) 20th (day)” value is listed as 8.2 mm and the “Mean remainder of hair length (mm) 30th (day)” value is 7.6 mm. For the same compound, in series [1], the “Therapeutic efficacy (Number of volunteers) Recovery” value was 6 Number of volunteers, the “Therapeutic efficacy (Number of volunteers) Moderate recovery” value is 12 Number of volunteers, the “Therapeutic efficacy (Number of volunteers) Not effected” value was 2 Number of volunteers and the “Therapeutic efficacy (Number of volunteers) Unfavorable” value is on record as 0 Number of volunteers. For the same compound, in series [1], the “cure rate (%)” value is 90%. Further, in series [2], the “hydrolysis by α-glucosidase” value is “hydrolyzed into rutin and D-glucose”.
Consider α-Glucosyl hesperidin, for which, in the series with rabbits, the “Mean remainder of hair length (mm) 10th (day)” value is 2.3 mm, the “Mean remainder of hair length (mm) 20th (day)” value amounted to 7.4 mm and the “Mean remainder of hair length (mm) 30th (day)” value is 6.7 mm. In series [1], the “Therapeutic efficacy (Number of volunteers) Recovery” value was 4 Number of volunteers, the “Therapeutic efficacy (Number of volunteers) Moderate recovery” value is reported as 11 Number of volunteers, the “Therapeutic efficacy (Number of volunteers) Not effected” value is listed as 5 Number of volunteers and the “Therapeutic efficacy (Number of volunteers) Unfavorable” value is 0 Number of volunteers. Also, the “cure rate (%)” value in series [1] is 75%. In addition, the “hydrolysis by α-glucosidase” value in series [2] is “formed hesperidin and D-glucose”.
In the case of `O=C1O[C@H]([C@@H](O)CO)C(O)=C1O[C@H]1O[C@H](CO)[C@@H](O)[C@H](O)[C@H]1O` [2-O-α-D-Glucosyl-L-ascorbic acid], in the series with rabbits, the “Mean remainder of hair length (mm) 10th (day)” value was 2.4 mm, the “Mean remainder of hair length (mm) 20th (day)” value is 6.8 mm and the “Mean remainder of hair length (mm) 30th (day)” value was determined as 6.9 mm. Moreover, in series [1], the “Therapeutic efficacy (Number of volunteers) Recovery” value is 6 Number of volunteers, the “Therapeutic efficacy (Number of volunteers) Moderate recovery” value is recorded as 10 Number of volunteers, the “Therapeutic efficacy (Number of volunteers) Not effected” value is given as 4 Number of volunteers and the “Therapeutic efficacy (Number of volunteers) Unfavorable” value is given as 0 Number of volunteers. The “cure rate (%)” value in series [1] was 80%.
With `COc1ccc(C2CC(=O)c3c(O)cc(OC4OC(COC5OC(C)C(O)C(O)C5O)C(O)C(O)C4O)cc3O2)cc1O` (stereo not drawn) [Hesperidin, reference compound], in the series on rabbits, the “Mean remainder of hair length (mm) 10th (day)” value came to 0.1 mm, the “Mean remainder of hair length (mm) 20th (day)” value is given as 0.5 mm and the “Mean remainder of hair length (mm) 30th (day)” value stood at 0.2 mm. In series [1], the “Therapeutic efficacy (Number of volunteers) Recovery” value was 0 Number of volunteers, the “Therapeutic efficacy (Number of volunteers) Moderate recovery” value is 3 Number of volunteers, the “Therapeutic efficacy (Number of volunteers) Not effected” value is given as 12 Number of volunteers and the “Therapeutic efficacy (Number of volunteers) Unfavorable” value is 5 Number of volunteers.
